Laboratory results taken from patent US20120010075A1 (priority 2009, published 2012).

Test system: Leptosphaeria nodorum (LEPTNO)
Assay: In vitro fungitoxicity of hydrazones with and without copper towards Leptosphaeria nodorum (Example 26)
Assay type: cell-based
Settings: Parastagonospora nodorum, 72 h, copper-minus medium; test compound Concn. 0.05 μg/mL; 72 h at 25° C.; read-out: LEPTNO % Inhn. Minus Copper Observed
Molecule `COc1ccc(C(=O)N/N=C(\C)c2cc(Br)cc(Br)c2O)cc1` [Example 546] has an inhibition of growth at 0.05 µg/mL of 7.6%. `C/C(=N\NC(=O)c1ccc(Br)cc1)c1cc(Br)cc(Br)c1O` [Example 547] gave an inhibition of growth at 0.05 µg/mL of 10.8%. In the case of `C/C(=N\NC(=O)c1ccc(C(F)(F)F)cc1)c1cc(Br)cc(Br)c1O` [Example 548], the inhibition of growth at 0.05 µg/mL is reported as 6.7%. With `C/C(=N\NC(=O)c1ccccc1Br)c1cc(Br)cc(Br)c1O` [Example 549] the inhibition of growth at 0.05 µg/mL was 0%. `C/C(=N\NC(=O)c1ccccc1O)c1cc(Br)cc(Br)c1O` [Example 550] showed an inhibition of growth at 0.05 µg/mL of 4.6%. For `COc1ccc(/C(C)=N/NC(=O)c2ccccc2)c(O)c1OC` [Example 551], the inhibition of growth at 0.05 µg/mL was 1.7%. In the case of `COc1ccc(/C(C)=N/NC(=O)c2ccccc2C)c(O)c1OC` [Example 552], the inhibition of growth at 0.05 µg/mL is reported as 0%. In the case of `COc1ccc(/C(C)=N/NC(=O)c2cccc(C)c2)c(O)c1OC` [Example 553], the inhibition of growth at 0.05 µg/mL is reported as 0%. Molecule `COc1ccc(/C(C)=N/NC(=O)c2ccc(C)cc2)c(O)c1OC` [Example 554] has an inhibition of growth at 0.05 µg/mL of 0%. For `COc1ccc(/C(C)=N/NC(=O)c2ccccc2Cl)c(O)c1OC` [Example 555], the inhibition of growth at 0.05 µg/mL was 3.7%. In the case of `COc1ccc(/C(C)=N/NC(=O)c2cccc(Cl)c2)c(O)c1OC` [Example 556], the inhibition of growth at 0.05 µg/mL is reported as 7.7%. In the case of `COc1ccc(/C(C)=N/NC(=O)c2ccc(Cl)cc2)c(O)c1OC` [Example 557], the inhibition of growth at 0.05 µg/mL is reported as 13%. Molecule `COc1ccc(C(=O)N/N=C(\C)c2ccc(OC)c(OC)c2O)cc1` [Example 558] has an inhibition of growth at 0.05 µg/mL of 3.8%. For `COc1ccc(/C(C)=N/NC(=O)c2ccc(Br)cc2)c(O)c1OC` [Example 559], the inhibition of growth at 0.05 µg/mL was 10%. With `COc1ccc(/C(C)=N/NC(=O)c2ccc(C(F)(F)F)cc2)c(O)c1OC` [Example 560] the inhibition of growth at 0.05 µg/mL was 1.3%. Work on `COc1ccc(/C(C)=N/NC(=O)c2ccccc2Br)c(O)c1OC` [Example 561] yielded an inhibition of growth at 0.05 µg/mL of 0%.

Same assay, conditions: copper-plus medium (CuCl2 10 μM); test compound Concn. 0.05 μg/mL; 72 h at 25° C.
With `COc1ccc(C(=O)N/N=C(\C)c2cc(Br)cc(Br)c2O)cc1` [Example 546] the “LEPTNO % Inhn. Plus Copper Observed” value was 97.7%. For `C/C(=N\NC(=O)c1ccc(Br)cc1)c1cc(Br)cc(Br)c1O` [Example 547], the “LEPTNO % Inhn. Plus Copper Observed” value was 97.7%. With `C/C(=N\NC(=O)c1ccc(C(F)(F)F)cc1)c1cc(Br)cc(Br)c1O` [Example 548] the “LEPTNO % Inhn. Plus Copper Observed” value was 97.5%. In the case of `C/C(=N\NC(=O)c1ccccc1Br)c1cc(Br)cc(Br)c1O` [Example 549], the “LEPTNO % Inhn. Plus Copper Observed” value is reported as 97.3%. For `C/C(=N\NC(=O)c1ccccc1O)c1cc(Br)cc(Br)c1O` [Example 550], the “LEPTNO % Inhn. Plus Copper Observed” value was 97.2%. For `COc1ccc(/C(C)=N/NC(=O)c2ccccc2)c(O)c1OC` [Example 551], the “LEPTNO % Inhn. Plus Copper Observed” value was 96.0%. With `COc1ccc(/C(C)=N/NC(=O)c2ccccc2C)c(O)c1OC` [Example 552] the “LEPTNO % Inhn. Plus Copper Observed” value was 94.2%. In the case of `COc1ccc(/C(C)=N/NC(=O)c2cccc(C)c2)c(O)c1OC` [Example 553], the “LEPTNO % Inhn. Plus Copper Observed” value is reported as 93.2%. With `COc1ccc(/C(C)=N/NC(=O)c2ccc(C)cc2)c(O)c1OC` [Example 554] the “LEPTNO % Inhn. Plus Copper Observed” value was 97.3%. In the case of `COc1ccc(/C(C)=N/NC(=O)c2ccccc2Cl)c(O)c1OC` [Example 555], the “LEPTNO % Inhn. Plus Copper Observed” value is reported as 92.5%. In the case of `COc1ccc(/C(C)=N/NC(=O)c2cccc(Cl)c2)c(O)c1OC` [Example 556], the “LEPTNO % Inhn. Plus Copper Observed” value is reported as 95.9%. For `COc1ccc(/C(C)=N/NC(=O)c2ccc(Cl)cc2)c(O)c1OC` [Example 557], the “LEPTNO % Inhn. Plus Copper Observed” value was 95.7%. With `COc1ccc(C(=O)N/N=C(\C)c2ccc(OC)c(OC)c2O)cc1` [Example 558] the “LEPTNO % Inhn. Plus Copper Observed” value was 95.7%. With `COc1ccc(/C(C)=N/NC(=O)c2ccc(Br)cc2)c(O)c1OC` [Example 559] the “LEPTNO % Inhn. Plus Copper Observed” value was 97.3%. For `COc1ccc(/C(C)=N/NC(=O)c2ccc(C(F)(F)F)cc2)c(O)c1OC` [Example 560], the “LEPTNO % Inhn. Plus Copper Observed” value was 90.7%. In the case of `COc1ccc(/C(C)=N/NC(=O)c2ccccc2Br)c(O)c1OC` [Example 561], the “LEPTNO % Inhn. Plus Copper Observed” value is reported as 92.2%.

Test system: not given
Assay: not given
Settings: not given
Molecule `COc1ccc(C(=O)N/N=C(\C)c2cc(Br)cc(Br)c2O)cc1` [Example 546] has a melting point of 247 to 248 °C. `C/C(=N\NC(=O)c1ccc(Br)cc1)c1cc(Br)cc(Br)c1O` [Example 547] showed a melting point of 264 to 266 °C. In the case of `C/C(=N\NC(=O)c1ccc(C(F)(F)F)cc1)c1cc(Br)cc(Br)c1O` [Example 548], the melting point is reported as 255 to 257 °C. Molecule `C/C(=N\NC(=O)c1ccccc1Br)c1cc(Br)cc(Br)c1O` [Example 549] has a melting point of 214 to 216 °C. Molecule `C/C(=N\NC(=O)c1ccccc1O)c1cc(Br)cc(Br)c1O` [Example 550] has a melting point of 305 to 306 °C. `COc1ccc(/C(C)=N/NC(=O)c2ccccc2)c(O)c1OC` [Example 551] gave a melting point of 154 to 155 °C. For `COc1ccc(/C(C)=N/NC(=O)c2ccccc2C)c(O)c1OC` [Example 552], the melting point was 150 to 152 °C. Work on `COc1ccc(/C(C)=N/NC(=O)c2cccc(C)c2)c(O)c1OC` [Example 553] yielded a melting point of 158 to 162 °C. In the case of `COc1ccc(/C(C)=N/NC(=O)c2ccc(C)cc2)c(O)c1OC` [Example 554], the melting point is reported as 245 to 249 °C. `COc1ccc(/C(C)=N/NC(=O)c2ccccc2Cl)c(O)c1OC` [Example 555] showed a melting point of 77 to 86 °C. `COc1ccc(/C(C)=N/NC(=O)c2cccc(Cl)c2)c(O)c1OC` [Example 556] gave a melting point of 194 to 201 °C. In the case of `COc1ccc(/C(C)=N/NC(=O)c2ccc(Cl)cc2)c(O)c1OC` [Example 557], the melting point is reported as 230 to 235 °C. Work on `COc1ccc(C(=O)N/N=C(\C)c2ccc(OC)c(OC)c2O)cc1` [Example 558] yielded a melting point of 230 to 232 °C. For `COc1ccc(/C(C)=N/NC(=O)c2ccc(Br)cc2)c(O)c1OC` [Example 559], the melting point was 241 to 245 °C. `COc1ccc(/C(C)=N/NC(=O)c2ccc(C(F)(F)F)cc2)c(O)c1OC` [Example 560] gave a melting point of 229 to 233 °C. `COc1ccc(/C(C)=N/NC(=O)c2ccccc2Br)c(O)c1OC` [Example 561] showed a melting point of 195 to 200 °C.

Test system: Phytophthora infestans
Assay: not given
Assay type: in vivo, Phytophthora infestans on tomato
Settings: hydrazone 50 ppm with 50 μM CuCl2.2H2O, applied 24 h before inoculation; assessed 7 days after inoculation; tomato late blight
With `COc1ccc(C(=O)N/N=C(\C)c2cc(Br)cc(Br)c2O)cc1` [Example 546] the “TLB % Control” value was 100.0%. With `C/C(=N\NC(=O)c1ccc(Br)cc1)c1cc(Br)cc(Br)c1O` [Example 547] the “TLB % Control” value was 88.0%. In the case of `C/C(=N\NC(=O)c1ccc(C(F)(F)F)cc1)c1cc(Br)cc(Br)c1O` [Example 548], the “TLB % Control” value is reported as 98.0%. In the case of `C/C(=N\NC(=O)c1ccccc1Br)c1cc(Br)cc(Br)c1O` [Example 549], the “TLB % Control” value is reported as 94.0%. With `C/C(=N\NC(=O)c1ccccc1O)c1cc(Br)cc(Br)c1O` [Example 550] the “TLB % Control” value was 63.0%. With `COc1ccc(/C(C)=N/NC(=O)c2ccccc2)c(O)c1OC` [Example 551] the “TLB % Control” value was 90.0%. With `COc1ccc(/C(C)=N/NC(=O)c2ccccc2C)c(O)c1OC` [Example 552] the “TLB % Control” value was 71.0%. For `COc1ccc(/C(C)=N/NC(=O)c2cccc(C)c2)c(O)c1OC` [Example 553], the “TLB % Control” value was 88.0%. In the case of `COc1ccc(/C(C)=N/NC(=O)c2ccc(C)cc2)c(O)c1OC` [Example 554], the “TLB % Control” value is reported as 100.0%. For `COc1ccc(/C(C)=N/NC(=O)c2ccccc2Cl)c(O)c1OC` [Example 555], the “TLB % Control” value was 46.0%. In the case of `COc1ccc(/C(C)=N/NC(=O)c2cccc(Cl)c2)c(O)c1OC` [Example 556], the “TLB % Control” value is reported as 75.0%. With `COc1ccc(/C(C)=N/NC(=O)c2ccc(Cl)cc2)c(O)c1OC` [Example 557] the “TLB % Control” value was 90.0%. In the case of `COc1ccc(C(=O)N/N=C(\C)c2ccc(OC)c(OC)c2O)cc1` [Example 558], the “TLB % Control” value is reported as 80.0%. In the case of `COc1ccc(/C(C)=N/NC(=O)c2ccc(Br)cc2)c(O)c1OC` [Example 559], the “TLB % Control” value is reported as 93.0%. In the case of `COc1ccc(/C(C)=N/NC(=O)c2ccc(C(F)(F)F)cc2)c(O)c1OC` [Example 560], the “TLB % Control” value is reported as 65.0%. In the case of `COc1ccc(/C(C)=N/NC(=O)c2ccccc2Br)c(O)c1OC` [Example 561], the “TLB % Control” value is reported as 60.0%.
